Results on one compound are retold here after patent US11110149B2, “Method for predicting and monitoring the efficacy of low-dose IL-2 and hydroxychloroquine therapy in autoimmune diseases and its long-term use in autoimmune-related conditions” (KSL BIOMEDICAL INC., priority 2019, dated 2021).

One data set relates to Sjögren patients. To be noted: 120 Sjögren patients, vs placebo, after 6 months of therapy; cited from earlier work.
For the next data set, the system named is SLE and/or pSS. Kind of data set: Double-blinded trial of IL-2 plus HCZ regimen: tolerability. The data set is classed as in vivo, human. To be noted: 1 million IU IL-2 SC every other day and HCZ 200 mg Bid PO every day.
A further data set relates to lupus patients. The note with it: systematic review, high level of evidence; cited from earlier work.

Turning to `CCN(CCO)CCCC(C)Nc1ccnc2cc(Cl)ccc12` (stereo not shown) [hydroxychloroquine], the “Primary symptoms of dryness, pain, or fatigue” value in the data set with Sjögren patients was “no significant improvement”. The Tolerability of regimen result in the data set on SLE and/or pSS is “well tolerated”. For the same compound, in the data set with lupus patients, the “Decrease of mortality rates in lupus patients” value is “at least 50%” and the Lupus flares result was “decreases lupus flares”.
